The values below come from patent US9456599B2, “Adjuvants” (SYNGENTA LIMITED, priority 2012, dated 2016).

Holding throughout (format): in vivo
One experiment relates to Setaria viridis. The experiment can be described thus: Glasshouse post-emergence spray test, pinoxaden with adjuvant (Example 4). As to conditions: pinoxaden 7.5 or 15 g/ha, adjuvant 0.2%; mean over two rates, three replicates, 14 and 21 days. Here is the method: (§1) Avena fatua, Lolium perenne, Setaria viridis and Alopecurus myosuroides seeds were sown into standard soil in pots and cultivated under controlled conditions in a glasshouse (at 20/16° C. day/night; 15 hours light; 65% humidity).
(§2) When the plants were at the vegetative stage of 2-3 leaves they were sprayed with an aqueous spray solution containing the herbicide pinoxaden and 0.2% v/v of one of the carbonates B92-P-Carbonate, B92-B-Carbonate and B96-P-Carbonate (see Table 1).
The spray solution was applied with a cabinet tracksprayer with a flat fan nozzle (Teejet 11002VS) and an application volume of 200 liter/ha (at 2 bar). Pinoxaden was applied at either 7.5 or 15 grams of pesticide per hectare. The test plants were then grown on in a glasshouse under controlled conditions (at 24/18° C. day/night; 16 hours light; 65% humidity) and watered twice a day. After 14 and 21 days the test was evaluated for general crop injury (100% equals total damage to a plant; 0% equals no damage to a plant).
The results shown in Table 6 below are mean averages over the two rates of pinoxaden, three replicates and the two assessment timings, and are compared to the efficacy of pinoxaden in the absence of an adjuvant, and pinoxaden in the presence of the tris(2-ethylhexyl)phosphate [TEHP, used as a standard, for comparative purposes] (at 0.2% by volume).

Another experiment relates to Avena fatua. Described as above. Conditions: pinoxaden 7.5 or 15 g/ha, adjuvant 0.2%; mean over two rates, three replicates, 14 and 21 days.
Excerpt: as §2
(§3) The spray solution was applied with a cabinet tracksprayer with a flat fan nozzle (Teejet 11002VS) and an application volume of 200 liter/ha (at 2 bar). Pinoxaden was applied at either 7.5 or 15 grams of pesticide per hectare. […] After 14 and 21 days the test was evaluated for general crop injury (100% equals total damage to a plant; 0% equals no damage to a plant).

A further experiment deals with Alopecurus myosuroides. Described as above. As to conditions: pinoxaden 7.5 or 15 g/ha, adjuvant 0.2%; mean over two rates, three replicates, 14 and 21 days.
Excerpt: as §2, §3

The next experiment has as its system Lolium perenne. The experiment is described as above. As to conditions: pinoxaden 7.5 or 15 g/ha, adjuvant 0.2%; mean over two rates, three replicates, 14 and 21 days.
Excerpt: as §2, §3

The test system of experiment [1] is Avena fatua, Lolium perenne, Setaria viridis and Alopecurus myosuroides. The experiment can be described thus: Glasshouse spray test, pinoxaden with carbonates A-E (Example 7), mean over four plant species. Conditions: 22 days, mean over rates, replicates, four species. How it is done: as §1
When the plants were at the vegetative stage of 2-3 leaves they were sprayed with an aqueous spray solution containing the herbicide pinoxaden and 0.2% v/v of one of the carbonates A, B, C, D and E (see Table 7).
The spray solution was applied with a cabinet tracksprayer with a flat fan nozzle (Teejet 11002VS) and an application volume of 200 liter/ha (at 2 bar). Pinoxaden was applied at either 7.5 or 15 grams of pesticide per hectare.
The test plants were then grown on. in a glasshouse under controlled conditions (at 24/18° C. day/night; 16 hours light; 65% humidity) and watered twice a day. After 22 days the test was evaluated for general crop injury or phytotoxicity (100% equals total damage to a plant; 0% equals no damage to a plant).
The results shown in Table 11 below are mean averages over the two rates of pinoxaden, the three replicates and the four plant species, and are compared to the efficacy of pinoxaden in the absence of an adjuvant, and pinoxaden in the presence of tris(2-ethylhexyl)phosphate, used as a standard adjuvant for comparative purposes (at 0.2% by […] volume).

For experiment [2] the test system is unchanged. The experiment can be described thus: Glasshouse post-emergence spray test, pinoxaden with adjuvant (Example 4), mean across species. As to conditions: pinoxaden 7.5 or 15 g/ha, adjuvant 0.2%; 14 and 21 days; Tukey HSD letter.
Excerpt: as §2, §3

For experiment [3], the system named is Septoria tritici. The experiment can be described thus: Septoria tritici on wheat, isopyrazam with B92-P-/B96-P-carbonate (Example 10). As to conditions: wheat leaf area infected 14 days after spray; isopyrazam 3, 10, 30 and 100 mg/l, adjuvant 0.1% by volume; mean over four rates, twelve replicates. How it is done: Wheat plants were inoculated with the fungus Septoria tritici. Four days after inoculation the plants were sprayed with a diluted suspension concentrate formulation of the fungicide isopyrazam at rates of 3, 10, 30 and 100 mg of the fungicide per liter of spray solution, using a laboratory track sprayer which delivered the spray at a rate of 200 liters per hectare. Spray tests were also carried out with diluted suspension concentrates additionally comprising the carbonates B92-P-carbonate and B96-P-carbonate (see Table 1) which were added to the spray solution at a rate of 0.1% v/v, based on the quantity of spray liquor. The leaves of the plants were assessed visually 14 days after the spray application and the damage was expressed as the percentage of the leaf area infected. Each spray test was replicated twelve times across the four application rates.
The results shown in Table 15 below are mean averages over the four rates of isopyrazam and the twelve replicates, and are compared to the efficacy of isopyrazam in the absence of an adjuvant, and isopyrazam in the presence of oleyl ethoxylate 20EO butyl end capped which was used as a standard for comparative purposes (at 0.1% by volume).

Experiment [4] relates to Septoria tritici. Nature of the experiment: Septoria tritici on wheat, isopyrazam with compound E (Example 8). Conditions: wheat leaf area infected 12 days after spray; isopyrazam 3, 10, 30 and 100 mg/l, adjuvant 0.1% by volume; mean over four rates, four replicates. How it is done: Wheat plants were inoculated with the fungus Septoria tritici. Four days after inoculation the plants were sprayed with a diluted suspension concentrate formulation of the fungicide isopyrazam at rates of 3, 10, 30 and 100 mg of the fungicide per liter of spray solution, using a laboratory track sprayer which delivered the spray at a rate of 200 liters per hectare. Spray tests were also carried out with a diluted suspension concentrate additionally comprising the carbonate compound E (see Table 7) added to the spray solution at a rate of 0.1% v/v, based on the quantity of spray liquor. The leaves of the plants were assessed visually 12 days after the spray application and the damage was expressed as the percentage of the leaf area infected. Each spray test was replicated four times across the four application rates.
The results shown in Table 13 below are mean averages over the four rates of isopyrazam and the four replicates, and are compared to the efficacy of isopyrazam in the absence of an adjuvant, and isopyrazam in the presence of oleyl ethoxylate 20EO butyl end capped adjuvant used as a standard adjuvant for comparative purposes (at 0.1% by volume).

The subject of experiment [5] is Brachiaria plantaginea, Digitaria sanguinalis, Commelina benghalensis and Polygonum convulvulus. Nature of the experiment: Glasshouse post-emergence spray test, mesotrione with adjuvant (Example 3), mean across species. Conditions: mesotrione 30 or 60 g/ha, carbonate 0.2% or 0.5% Tween 20 + Rhodasurf DA/630-E; 14 and 21 days; Tukey HSD letter. How it is done: (§4) Brachiaria plantaginea, Digitaria sanguinalis, Commelina benghalensis and Polygonum convulvulus seeds were sown into standard soil in pots and cultivated under controlled conditions in a glasshouse (at 24/18° C. day/night; 16 hours light; 65% humidity).
(§5) When the plants were at the vegetative stage of 2-4 leaves they were sprayed with an aqueous spray solution containing the herbicide mesotrione and 0.2% v/v of one of the carbonates B92-P-Carbonate, B92-B-Carbonate and B96-P-Carbonate (see Table 1).
(§6) The spray solution was applied with a cabinet tracksprayer with a flat fan nozzle (Teejet 11002VS) and an application volume of 200 liter/ha (at 2 bar). Mesotrione was applied at either 30 or 60 grams of pesticide per hectare.
(§7) The test plants were then grown on, in a glasshouse under controlled conditions (at 24/18° C. day/night; 16 hours light; 65% humidity) and watered twice a day. After 14 and 21 days the test was evaluated for general crop injury (100% equals total damage to a plant; 0% equals no damage to a plant).
(§8) The results shown in Table 5 below are mean averages over the two rates of mesotrione, three replicates and the two assessment timings, and are compared to the efficacy of mesotrione in the absence of an adjuvant, and mesotrione in the presence of the commercially available tank-mix adjuvant, Tween 20 ®+Rhodasurf DA/630-E® (2:1 in water).

A further experiment concerns Brachiaria plantaginea. The experiment can be described thus: Glasshouse post-emergence spray test, mesotrione with adjuvant (Example 3). Conditions: mesotrione 30 or 60 g/ha, carbonate 0.2% or 0.5% Tween 20 + Rhodasurf DA/630-E; mean over two rates, three replicates, 14 and 21 days. Here is the method:
as §4, §5, §6, §7, §8

A further experiment deals with Polygonum convulvulus. The experiment is described as above. Conditions: mesotrione 30 or 60 g/ha, carbonate 0.2% or 0.5% Tween 20 + Rhodasurf DA/630-E; mean over two rates, three replicates, 14 and 21 days. Here is the method:
as §4, §5, §6, §7, §8

Another experiment deals with Digitaria sanguinalis. The description is as above. Conditions: mesotrione 30 or 60 g/ha, carbonate 0.2% or 0.5% Tween 20 + Rhodasurf DA/630-E; mean over two rates, three replicates, 14 and 21 days. Here is the method: as §4, §5, §6, §7, §8
For a further experiment, the system named is Commelina benghalensis. The description is as above. Conditions: mesotrione 30 or 60 g/ha, carbonate 0.2% or 0.5% Tween 20 + Rhodasurf DA/630-E; mean over two rates, three replicates, 14 and 21 days. How it is done:
as §4, §5, §6, §7, §8

Experiment [6] concerns Brachiaria plantaginea, Digitaria sanguinalis, Commelina benghalensis and Polygonum convulvulus. Nature of the experiment: Glasshouse spray test, mesotrione with carbonates A-D (Example 6), mean over four plant species. Conditions: Table 10: mesotrione 30 or 60 g/ha, compounds A-D 0.2%, Tween + Rhodasurf 0.5%; 25 days; mean over rates, replicates, four species. Here is the method: as §4
When the plants were at the vegetative stage of 2-4 leaves they were sprayed with an aqueous spray solution containing the herbicide mesotrione and 0.2% v/v of one of the carbonates A, B, C and D (see Table 7).
as §6
The test plants were then grown on, in a glasshouse under controlled conditions (at 24/18° C. day/night; 16 hours light; 65% humidity) and watered twice a day. After 25 days the test was evaluated for general crop injury or phytotoxicity (100% equals total damage to a plant; 0% equals no damage to a plant).
The results shown in Table 10 below are mean averages over the two rates of mesotrione, the three replicates and the four plant species and are compared to the efficacy of mesotrione in the absence of an adjuvant, and mesotrione in the presence of the commercially available tank-mix adjuvant, Tween 20 ®+Rhodasurf DA/630-E® (combined in a 2:1 ratio) at 0.5% by volume.

`CCc1cc(C)cc(CC)c1-c1c(OC(=O)C(C)(C)C)n2n(c1=O)CCOCC2` [Pinoxaden]: in the experiment on Setaria viridis, the “Mean percentage kill SETARIA VIRIDIS” value is listed as 0%. In addition, the “Mean percentage kill AVENA FATUA” value with Avena fatua came to 10.0%. Besides, in the experiment on Alopecurus myosuroides, the “Mean percentage kill ALOPECURUS MYOSUROIDES” value was 0%. Also, the “Mean percentage kill LOLIUM PERENNE” value in the experiment on Lolium perenne was determined as 1.7%. Moreover, the “Mean % Phytotoxicity” value in experiment [1] (Table 11: pinoxaden 7.5 or 15 g/ha, compounds A-D or tris(2-ethylhexyl)phosphate 0.2% by volume) came to 4.25%; in [1] (Table 12: pinoxaden 7.5 or 15 g/ha, compound E or tris(2-ethylhexyl)phosphate 0.2% by volume), 0%. Further, the “Mean percentage kill, Mean across species” value in experiment [2] is on record as 2.9 C %.

For the compound `CC(C)C1C2CCC1c1c(NC(=O)c3cn(C)nc3C(F)F)cccc12` (stereo not drawn) [Isopyrazam], the Mean % infection with Septoria tritici [3] is listed as 76.9%; in the experiment on Septoria tritici [4], 65.1%.

Regarding `CS(=O)(=O)c1ccc(C(=O)C2C(=O)CCCC2=O)c([N+](=O)[O-])c1` [Mesotrione], in [5], the “Mean percentage kill, Mean across species” value turned out to be 42.5 B %. The “Mean percentage kill BRAPL” value in the experiment with Brachiaria plantaginea was found to be 1.7%. Also, the “Mean percentage kill POLCONV” value in the experiment with Polygonum convulvulus was found to be 70.8%. Moreover, the “Mean percentage kill DIGSA” value in the experiment on Digitaria sanguinalis is 44.2%. The “Mean percentage kill COMBEN” value in the experiment on Commelina benghalensis was 53.3%. For the same compound, the “Mean % Phytotoxicity” value in experiment [6] was found to be 33.71%.
